Reference: patent publication US12679843B2, “Pyrrolopyrimidine amines as complement inhibitors” (BioCryst Pharmaceuticals, Inc., priority 2020, dated 2026)

molecular target: Factor D (Homo sapiens, UniProt P00746); assay: Factor D esterolytic assay (Z-Lys-SBzl thioester substrate, DTNB, 405 nm); format: biochemical; settings: substrate Z-Lys-SBzl 1.29 mM, 100 mM HEPES, 500 mM NaCl, pH 7.5, 10% DMSO, tested a minimum of three times
Summary of the method: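 Run in pH 7.5 HEPES (100 mM) with 500 mM NaCl and 10% DMSO, with compound preincubated at room temperature or not before adding 1.29 mM Z-Lys-SBzl. Free thiol released by Factor D reacts with DTNB, and rate is followed at 405 nm minus 690 nm over 600 s. IC50 derives from rate-based inhibition, minimum three replicates.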

Sequence of Factor D (P00746 26-253): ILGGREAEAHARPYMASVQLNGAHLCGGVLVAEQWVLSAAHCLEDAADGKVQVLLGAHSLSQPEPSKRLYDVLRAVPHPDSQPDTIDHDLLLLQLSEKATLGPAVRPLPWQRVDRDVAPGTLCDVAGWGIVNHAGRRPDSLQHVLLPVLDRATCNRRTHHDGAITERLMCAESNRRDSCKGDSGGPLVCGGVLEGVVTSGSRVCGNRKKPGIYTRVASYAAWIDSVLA

| Compound | IC50 [nM] |
| --- | --- |
| COC(=O)Nc1ccc2c(c1)c1c(N)ncnc1n2CC(=O)N1[C@@H]2C[C@@H]2C[C@H]1C(=O)Nc1cccc(Br)n1 [Compound 225e, methyl (4-amino-9-(2-((1R,3S,5R)-3-((6-bromopyridin-2-yl)carbamoyl)-2-azabicyclo[3.1.0]hexan-2-yl)-2-oxoethyl)-9H-pyrimido[4,5-b]indol-6-yl)carbamate] | < 100 |
| Nc1nc(Cl)nc2c1ccn2CC(=O)N1[C@@H]2C[C@@H]2C[C@H]1C(=O)Nc1cccc(Br)n1 [Compound 90d, (1R,3S,5R)-2-(2-(4-amino-2-chloro-7H-pyrrolo[2,3-d]pyrimidin-7-yl)acetyl)-N-(6-bromopyridin-2-yl)-2-azabicyclo[3.1.0]hexane-3-carboxamide] | > 1000 |
| Cc1ccc(Br)nc1NC(=O)[C@@H]1C[C@@]2(C)C[C@H]2N1C(=O)Cn1cnc2c(N)ncnc21 [Compound 113a, (1R,3S,5R)-2-(2-(6-amino-9H-purin-9-yl)acetyl)-N-(6-bromo-3-methylpyridin-2-yl)-5-methyl-2-azabicyclo[3.1.0]hexane-3-carboxamide] | 100 to 1000 |
| CCOC(=O)CCc1ccc2c(c1)c1c(N)ncnc1n2CC(=O)N1[C@H](C(=O)Nc2cccc(Br)n2)C[C@@]2(C)C[C@@H]12 [Compound 190a, ethyl 3-(4-amino-9-(2-((1R,3S,5R)-3-((6-bromopyridin-2-yl)carbamoyl)-5-methyl-2-azabicyclo[3.1.0]hexan-2-yl)-2-oxoethyl)-9H-pyrimido[4,5-b]indol-6-yl)propanoate] | < 100 |
| Nc1ncnc2c1c1cc(F)ccc1n2CC(=O)N1[C@@H]2C[C@@H]2C[C@H]1C(=O)Nc1cccc(Br)n1 [Compound 32f, (1R,3S,5R)-2-(2-(4-amino-6-fluoro-9H-pyrimido[4,5-b]indol-9-yl)acetyl)-N-(6-bromopyridin-2-yl)-2-azabicyclo[3.1.0]hexane-3-carboxamide] | < 100 |
| Nc1ncnc2c1c1ccc(C(F)(F)F)cc1n2CC(=O)N1[C@@H]2C[C@@H]2C[C@H]1C(=O)Nc1cccc(Br)n1 [Compound 16e, (1R,3S,5R)-2-(2-(4-amino-7-(trifluoromethyl)-9H-pyrimido[4,5-b]indol-9-yl)acetyl)-N-(6-bromopyridin-2-yl)-2-azabicyclo[3.1.0]hexane-3-carboxamide] | < 100 |
| Cc1cc(C)c2c(c1)c1c(N)ncnc1n2CC(=O)N1[C@@H]2C[C@@H]2C[C@H]1C(=O)Nc1cccc(Br)n1 [Compound 189g, (1R,3S,5R)-2-(2-(4-amino-6,8-dimethyl-9H-pyrimido[4,5-b]indol-9-yl)acetyl)-N-(6-bromopyridin-2-yl)-2-azabicyclo[3.1.0]hexane-3-carboxamide] | < 100 |
| Nc1ncnc2c1c1ccc(F)cc1n2CC(=O)N1[C@@H]2C[C@@H]2C[C@H]1C(=O)Nc1cccc(Br)n1 [Compound 33e, (1R,3S,5R)-2-(2-(4-amino-7-fluoro-9H-pyrimido[4,5-b]indol-9-yl)acetyl)-N-(6-bromopyridin-2-yl)-2-azabicyclo[3.1.0]hexane-3-carboxamide] | < 100 |
| Nc1ncnc2c1ncn2CC(=O)N1CC2(CC2)C[C@H]1C(=O)NCc1cccc(Cl)c1F [Compound 120c, (S)-5-(2-(6-amino-9H-purin-9-yl)acetyl)-N-(3-chloro-2-fluorobenzyl)-5-azaspiro[2.4]heptane-6-carboxamide] | > 1000 |
| CC(=O)Nc1ccc2c(c1)c1c(N)ncnc1n2CC(=O)N1[C@H](C(=O)Nc2cccc(Br)n2)C[C@@]2(C)C[C@@H]12 [Compound 185a, (1R,3S,5R)-2-(2-(6-acetamido-4-amino-9H-pyrimido[4,5-b]indol-9-yl)acetyl)-N-(6-bromopyridin-2-yl)-5-methyl-2-azabicyclo[3.1.0]hexane-3-carboxamide] | < 100 |
| Nc1ncnc2c1c1ccccc1n2CC(=O)N1[C@@H]2C[C@@H]2C[C@H]1C(=O)Nc1cccc(Br)n1 [Compound 4b, (1R,3S,5R)-2-(2-(4-amino-9H-pyrimido[4,5-b]indol-9-yl)acetyl)-N-(6-bromopyridin-2-yl)-2-azabicyclo[3.1.0]hexane-3-carboxamide] | < 100 |
| NCc1ccc2c(c1)c1c(N)ncnc1n2CC(=O)N1[C@@H]2C[C@@H]2C[C@H]1C(=O)Nc1cccc(Br)n1 [Compound 63d, (1R,3S,5R)-2-(2-(4-amino-6-(aminomethyl)-9H-pyrimido[4,5-b]indol-9-yl)acetyl)-N-(6-bromopyridin-2-yl)-2-azabicyclo[3.1.0]hexane-3-carboxamide] | < 100 |
| Cc1ccc2c3c(N)ncnc3n(CC(=O)N3[C@@H]4C[C@@H]4C[C@H]3C(=O)Nc3cccc(Br)n3)c2c1 [Compound 23f, (1R,3S,5R)-2-(2-(4-amino-7-methyl-9H-pyrimido[4,5-b]indol-9-yl)acetyl)-N-(6-bromopyridin-2-yl)-2-azabicyclo[3.1.0]hexane-3-carboxamide] | < 100 |
| Nc1ncnc2c1nc(Br)n2CC(=O)N1C[C@H](F)C[C@H]1C(=O)NCc1cccc(Cl)c1F [Compound 110d, (2S,4R)-1-(2-(6-amino-8-bromo-9H-purin-9-yl)acetyl)-N-(3-chloro-2-fluorobenzyl)-4-fluoropyrrolidine-2-carboxamide] | > 1000 |

Now from value to molecule:

| IC50 [nM] | Compound |
| --- | --- |
| < 100 | Cc1ncc(-c2cc(C)c3c(c2)c2c(N)ncnc2n3CC(=O)N2C[C@](C)(F)C[C@H]2C(=O)Nc2cccc(Br)n2)cn1 [Compound 316a, (2S,4R)-1-(2-(4-amino-8-methyl-6-(2-methylpyrimidin-5-yl)-9H-pyrimido[4,5-b]indol-9-yl)acetyl)-N-(6-bromopyridin-2-yl)-4-fluoro-4-methylpyrrolidine-2-carboxamide] |
| 100 to 1000 | Cc1cc(-c2cccnc2C(F)(F)F)cc2c3c(N)ncnc3n(CC(=O)N3[C@H](C(=O)Nc4cccc(Br)n4)C[C@@]4(C)C[C@@H]34)c12 [Compound 358c, (1R,3S,5R)-2-(2-(4-amino-8-methyl-6-(2-(trifluoromethyl)pyridin-3-yl)-9H-pyrimido[4,5-b]indol-9-yl)acetyl)-N-(6-bromopyridin-2-yl)-5-methyl-2-azabicyclo[3.1.0]hexane-3-carboxamide] |
| < 100 | C[C@@]12C[C@@H](C(=O)Nc3cccc(Br)n3)N(C(=O)Cn3c4ncnc(N)c4c4cccc(-c5ccccc5)c43)[C@@H]1C2 [Compound 245a, (1R,3S,5R)-2-(2-(4-amino-8-phenyl-9H-pyrimido[4,5-b]indol-9-yl)acetyl)-N-(6-bromopyridin-2-yl)-5-methyl-2-azabicyclo[3.1.0]hexane-3-carboxamide] |
| < 100 | COc1cc2c(cc1C)c1c(N)ncnc1n2CC(=O)N1[C@H](C(=O)Nc2cccc(Br)n2)C[C@@]2(C)C[C@@H]12 [Compound 329a, (1R,3S,5R)-2-(2-(4-amino-7-methoxy-6-methyl-9H-pyrimido[4,5-b]indol-9-yl)acetyl)-N-(6-bromopyridin-2-yl)-5-methyl-2-azabicyclo[3.1.0]hexane-3-carboxamide] |
| < 100 | Cc1ncc(NC(=O)[C@@H]2C[C@@]3(C)C[C@H]3N2C(=O)Cn2c3ncnc(N)c3c3cc(C(F)(F)F)cc(C)c32)nc1Cl [Compound 364e, (1R,3S,5R)-2-(2-(4-amino-8-methyl-6-(trifluoromethyl)-9H-pyrimido[4,5-b]indol-9-yl)acetyl)-N-(6-chloro-5-methylpyrazin-2-yl)-5-methyl-2-azabicyclo[3.1.0]hexane-3-carboxamide] |
| < 100 | C[C@@]12C[C@@H](C(=O)Nc3cccc(Cl)n3)N(C(=O)Cn3c4ccc(C(F)(F)F)cc4c4c(N)ncnc43)[C@@H]1C2 [Compound 269c, (1R,3S,5R)-2-(2-(4-amino-6-(trifluoromethyl)-9H-pyrimido[4,5-b]indol-9-yl)acetyl)-N-(6-chloropyridin-2-yl)-5-methyl-2-azabicyclo[3.1.0]hexane-3-carboxamide] |
| < 100 | Cc1cc2c(cc1F)c1c(N)ncnc1n2CC(=O)N1[C@@H]2C[C@@H]2C[C@H]1C(=O)Nc1cccc(Br)n1 [Compound 381g, (1R,3S,5R)-2-(2-(4-amino-6-fluoro-7-methyl-9H-pyrimido[4,5-b]indol-9-yl)acetyl)-N-(6-bromopyridin-2-yl)-2-azabicyclo[3.1.0]hexane-3-carboxamide] |
| < 100 | Cc1cc(-c2cccnc2)cc2c3c(N)ncnc3n(CC(=O)N3[C@@H]4C[C@@H]4C[C@H]3C(=O)Nc3cccc(Br)n3)c12 [Compound 288c, (1R,3S,5R)-2-(2-(4-amino-8-methyl-6-(pyridin-3-yl)-9H-pyrimido[4,5-b]indol-9-yl)acetyl)-N-(6-bromopyridin-2-yl)-2-azabicyclo[3.1.0]hexane-3-carboxamide] |
| < 100 | Cc1cc(C(F)(F)F)cc2c3c(N)ncnc3n(CC(=O)N3C[C@H](F)C[C@H]3C(=O)Nc3cncc(Br)n3)c12 [Compound 321d, (2S,4R)-1-(2-(4-amino-8-methyl-6-(trifluoromethyl)-9H-pyrimido[4,5-b]indol-9-yl)acetyl)-N-(6-bromopyrazin-2-yl)-4-fluoropyrrolidine-2-carboxamide] |
| < 100 | Nc1ncnc2c1c1nc(-c3ccccc3)ccc1n2CC(=O)N1[C@@H]2C[C@@H]2C[C@H]1C(=O)Nc1cccc(Br)n1 [Compound 298c, (1R,3S,5R)-2-(2-(4-amino-6-phenyl-9H-pyrido[2′,3′:4,5]pyrrolo[2,3-d]pyrimidin-9-yl)acetyl)-N-(6-bromopyridin-2-yl)-2-azabicyclo[3.1.0]hexane-3-carboxamide] |
| < 100 | Nc1ncnc2c1c1cc(Br)cc(F)c1n2CC(=O)N1[C@@H]2C[C@@H]2C[C@H]1C(=O)Nc1cccc(Br)n1 [Compound 376g, (1R,3S,5R)-2-(2-(4-amino-6-bromo-8-fluoro-9H-pyrimido[4,5-b]indol-9-yl)acetyl)-N-(6-bromopyridin-2-yl)-2-azabicyclo[3.1.0]hexane-3-carboxamide] |
| < 100 | COc1cc(F)cc2c3c(N)ncnc3n(CC(=O)N3[C@@H]4C[C@@H]4C[C@H]3C(=O)Nc3cccc(Br)n3)c12 [Compound 280g, (1R,3S,5R)-2-(2-(4-amino-6-fluoro-8-methoxy-9H-pyrimido[4,5-b]indol-9-yl)acetyl)-N-(6-bromopyridin-2-yl)-2-azabicyclo[3.1.0]hexane-3-carboxamide] |
